Experimental data reported in PubChem BioAssay AID256 (DTP/NCI, 2004).
Toxic doses and inconclusive results are not listed. The calls were made as follows: active = survival T/C of 150% or more; inactive = T/C below 125% in these data.

Test system: CD2F1 mice, L1210 leukemia ip, survival T/C
Experiment: NCI In Vivo Anticancer Drug Screen. Data for tumor model L1210 Leukemia (intraperitoneal) in CD2F1 (CDF1) mice
Details: endpoint: mean survival time, higher = longer survival
Summary of the method: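 Transplantable tumor in mice; compound-treated vs vehicle-treated groups. Read-out = treated/control ratio of the measured endpoint.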

[1] = dose: 100.0 mg/kg/injection, schedule: Q04DX003 (ip), vehicle: saline
[2] = dose: 100.0 mg/kg/injection, schedule: Q01DX001 (ip), vehicle: saline with Tween-80
[3] = dose: 200.0 mg/kg/injection, schedule: Q01DX001 (ip), vehicle: saline with Tween-80
[4] = dose: 400.0 mg/kg/injection, schedule: Q01DX001 (ip), vehicle: saline with Tween-80
[5] = dose: 100.0 mg/kg/injection, schedule: Q04DX003 (ip), vehicle: saline with Tween-80
[6] = dose: 200.0 mg/kg/injection, schedule: Q04DX003 (ip), vehicle: saline with Tween-80
[7] = dose: 400.0 mg/kg/injection, schedule: Q04DX003 (ip), vehicle: saline with Tween-80
[8] = dose: 100.0 mg/kg/injection, schedule: Q01DX009 (ip), vehicle: saline with Tween-80
[9] = dose: 200.0 mg/kg/injection, schedule: Q01DX009 (ip), vehicle: saline with Tween-80

Measured: T/C

O=C(O)C1OC12CCCCC2 (stereo not drawn)
inactive: dose: 100.0 mg/kg/injection, schedule: Q01DX009 (ip), vehicle: saline 96 % of control | [1] 100 % of control | dose: 200.0 mg/kg/injection, schedule: Q01DX009 (ip), vehicle: saline 101 % of control | dose: 200.0 mg/kg/injection, schedule: Q04DX003 (ip), vehicle: saline 101 % of control | dose: 400.0 mg/kg/injection, schedule: Q01DX009 (ip), vehicle: saline 100 % of control | dose: 400.0 mg/kg/injection, schedule: Q04DX003 (ip), vehicle: saline 103 % of control

CCN(CC)CCNc1cc2c3ccccc3ccc2c2ccccc12
inactive: [2] 88 % of control | [3] 95 % of control | [4] 100 % of control

O=C(O)CC1OCC=C2C[N+]3([O-])CCC45c6ccccc6NC4C1C2CC53 (stereo not drawn)
inactive: dose: 75.0 mg/kg/injection, schedule: Q01DX001 (ip), vehicle: other 100 % of control | dose: 150.0 mg/kg/injection, schedule: Q01DX001 (ip), vehicle: other 98 % of control

Nc1ncnc2c1ncn2C1OC(CO)C(NC(=O)C(N)Cc2ccccc2)C1O (stereo not drawn)
inactive: dose: 100.0 mg/kg/injection, schedule: Q01DX001 (ip), vehicle: saline 94 % of control | dose: 200.0 mg/kg/injection, schedule: Q01DX001 (ip), vehicle: saline 92 % of control | dose: 400.0 mg/kg/injection, schedule: Q01DX001 (ip), vehicle: saline 91 % of control

CC(=O)CC(C)=O.CC(=O)CC(C)=O.CC(=O)CC(C)=O.CC(=O)CC(C)=O.[Hf]
inactive: [5] 86 % of control | [6] 94 % of control

[N-]=[N+]=CC(=O)CCC(=O)C=[N+]=[N-]
inactive: dose: 12.5 mg/kg/injection, schedule: Q01DX009 (ip), vehicle: other 106 % of control | dose: 25.0 mg/kg/injection, schedule: Q01DX009 (ip), vehicle: other 90 % of control

C[N+](C)(Cc1ccccc1)C1c2ccccc2-c2ccc(Cl)cc21 (stereo not drawn)
inactive: dose: 50.0 mg/kg/injection, schedule: Q04DX002 (ip), vehicle: saline with Tween-80 103 % of control

ClC1(Cl)C2CCCCCCC21 (stereo not drawn)
inactive: dose: 100.0 mg/kg/injection, schedule: Q01DX001 (ip), vehicle: saline sonified 95 % of control | dose: 100.0 mg/kg/injection, schedule: Q01DX009 (ip), vehicle: saline sonified 103 % of control | dose: 100.0 mg/kg/injection, schedule: Q04DX002 (ip), vehicle: saline with Tween-80 91 % of control | dose: 200.0 mg/kg/injection, schedule: Q01DX001 (ip), vehicle: saline sonified 105 % of control | dose: 200.0 mg/kg/injection, schedule: Q01DX009 (ip), vehicle: saline sonified 101 % of control | dose: 200.0 mg/kg/injection, schedule: Q04DX002 (ip), vehicle: saline with Tween-80 95 % of control | dose: 400.0 mg/kg/injection, schedule: Q01DX001 (ip), vehicle: saline sonified 100 % of control | dose: 400.0 mg/kg/injection, schedule: Q01DX009 (ip), vehicle: saline sonified 103 % of control

O=P1(Cc2ccccc2)C(c2ccccc2)=C(O)C2CCCC21 (stereo not drawn)
inactive: dose: 50.0 mg/kg/injection, schedule: Q01DX009 (ip), vehicle: Klucel (hydroxypropylcellulose) (HPC) 97 % of control | dose: 100.0 mg/kg/injection, schedule: Q01DX009 (ip), vehicle: Klucel (hydroxypropylcellulose) (HPC) 97 % of control | dose: 200.0 mg/kg/injection, schedule: Q01DX009 (ip), vehicle: Klucel (hydroxypropylcellulose) (HPC) 89 % of control

COc1cc(NCCCCN2C(=O)c3ccccc3C2=O)c2ncccc2c1
inactive: [5] 97 % of control | [6] 102 % of control | [7] 96 % of control

C(=N\Nc1nc2ccccc2s1)/c1ccncc1
inactive: dose: 100.0 mg/kg/injection, schedule: Q04DX003 (ip), vehicle: Klucel (hydroxypropylcellulose) (HPC) 90 % of control | dose: 200.0 mg/kg/injection, schedule: Q04DX003 (ip), vehicle: Klucel (hydroxypropylcellulose) (HPC) 92 % of control | dose: 400.0 mg/kg/injection, schedule: Q04DX003 (ip), vehicle: Klucel (hydroxypropylcellulose) (HPC) 90 % of control

C(#[C][Ge]([C]#Cc1ccccc1)([C]#Cc1ccccc1)[C]#Cc1ccccc1)c1ccccc1
inactive: dose: 25.0 mg/kg/injection, schedule: Q01DX009 (ip), vehicle: saline with Tween-80 91 % of control | dose: 50.0 mg/kg/injection, schedule: Q01DX009 (ip), vehicle: saline with Tween-80 88 % of control | [8] 96 % of control | [9] 90 % of control

Nc1c2ccccc2c[n+]2ccccc12
inactive: dose: 12.5 mg/kg/injection, schedule: Q04DX003 (ip), vehicle: saline 112 % of control | dose: 25.0 mg/kg/injection, schedule: Q04DX003 (ip), vehicle: saline 124 % of control | dose: 50.0 mg/kg/injection, schedule: Q04DX003 (ip), vehicle: saline 114 % of control | [1] 121 % of control

C1=CN2CCCN3C=CC=c4ccc(c2c43)=C1
inactive: dose: 7.5 mg/kg/injection, schedule: Q01DX001 (ip), vehicle: saline 101 % of control | dose: 7.5 mg/kg/injection, schedule: Q04DX003 (ip), vehicle: saline 97 % of control | dose: 15.0 mg/kg/injection, schedule: Q01DX001 (ip), vehicle: saline 95 % of control | dose: 15.0 mg/kg/injection, schedule: Q04DX003 (ip), vehicle: saline 105 % of control | dose: 30.0 mg/kg/injection, schedule: Q01DX001 (ip), vehicle: saline 95 % of control | dose: 30.0 mg/kg/injection, schedule: Q04DX003 (ip), vehicle: saline 97 % of control

CC(=O)Nc1cccc(N)c1
inactive: [1] 102 % of control

CN(C)C1c2ccccc2-c2ccc([N+](=O)[O-])cc21 (stereo not drawn)
inactive: dose: 50.0 mg/kg/injection, schedule: Q01DX001 (ip), vehicle: carboxymethylcellulose (CMC) 107 % of control | dose: 100.0 mg/kg/injection, schedule: Q01DX001 (ip), vehicle: carboxymethylcellulose (CMC) 101 % of control | dose: 200.0 mg/kg/injection, schedule: Q01DX001 (ip), vehicle: carboxymethylcellulose (CMC) 101 % of control | dose: 400.0 mg/kg/injection, schedule: Q01DX001 (ip), vehicle: carboxymethylcellulose (CMC) 101 % of control

CN=C(N)c1ccc(N=C(N)c2ccc(N=C(N)c3ccc(NC(=O)c4ccc(C(=O)Nc5ccc(C(N)=Nc6ccc(C(N)=Nc7ccc(C(N)=NC)cc7)cc6)cc5)cc4)cc3)cc2)cc1
inactive: dose: 62.5 mg/kg/injection, schedule: Q01DX Z (ip), vehicle: water 111 % of control

CC(=O)CC(=O)c1ccccc1.CC(=O)CC(=O)c1ccccc1.CC(=O)CC(=O)c1ccccc1.[Tb]
inactive: [5] 93 % of control | [6] 91 % of control | [7] 88 % of control

CCc1cc(CSc2ccc(Cl)cc2)ccc1N
inactive: [5] 102 % of control | [6] 100 % of control | [7] 98 % of control

CCCCCCN(CCCCCC)CP(=O)(CN(CCCCCC)CCCCCC)CN(CCCCCC)CCCCCC
inactive: [2] 95 % of control | [3] 104 % of control | [4] 104 % of control

COc1ccc(NC(=O)Nc2ccc(F)c(Cl)c2)c(OC)c1
inactive: [8] 97 % of control | [9] 103 % of control | dose: 400.0 mg/kg/injection, schedule: Q01DX009 (ip), vehicle: saline with Tween-80 112 % of control
